Square brackets hold non-standard residues; d marks the D form. Peptide text beside a SMILES is read from it. * marks the point of attachment. Sta = CC(C)C[C@H](N)[C@@H](O)CC(=O)O; Isovaleryl = CC(C)CC(=O)*
Experiments:
[1] = test system: C. otophyllum protease QC; assay type: biochemical, Cynanchum otophyllum Schneid.; conditions: inhibitor 8 mmol/L, 37° C., 30 min
Experimental: (§1) The caseinolytic activities of the C. otophyllum proteases were determined using a method modified from Mohanty et al. (2003). The substrate was prepared by dissolving 1% (wt/vol) of whole casein in 10 mmol/L of citric acidphosphate buffer (pH 6.5). The assay was performed by incubating 1.1 mL of substrate with 0.1 mL of partially purified protease extracted solution under 37° C. for 30 min and terminated using 1.8 mL of 5% (wt/vol) trichloroacetic acid (TCA). The blank control was prepared by adding the same amount of TCA to the protease extracted solution, then adding the substrate. After 30 min standing at room temperature, the completely precipitated proteins were removed by centrifuging at 5,000 × g for 20 min at room temperature. The protein content in the supernatant was then measured at 280 nm (UV-2102 PC, Unico Instrument Co. Ltd.). One unit of PA was defined as the amount of the protease extracted solution required for an increase of 0.01 in optical density in 1 min at 280 nm.
(§2) The type of protease was determined as described by Mazorra-Manzano et al. (2013) with modification.Different protease inhibitors (8 mmol/L, 0.1 mL), a serine protease (phenylmethylsulfonyl fluoride, PMSF), a cysteine protease [transepoxy-succinylleucyl-amido-(4-guanidino)-butane, E-64], a metallo protease (EDTA), and an aspartic protease (pepstatin A), were added to 1 mL of the proteases. The mixtures were incubated at 37° C. for 30 min, then PA was evaluated. The percentage inhibition was calculated as follows:
(§3) percentage inhibition=100−[100−(residual activity/activity without inhibitor)].

[2] = test system: C. otophyllum protease QA; assay type: biochemical, Cynanchum otophyllum Schneid.; conditions: inhibitor 8 mmol/L, 37° C., 30 min
Experimental: as §1, §2, §3

[3] = test system: C. otophyllum protease QC; assay: Effect of metal ions on milk-clotting activity; assay type: biochemical, Cynanchum otophyllum Schneid.; conditions: metal ion 10 mmol/L added to 12% (w/v) skim milk containing 10 mmol/L CaCl2, pH 6.5
Excerpt: (§4) Some metal ions as a cofactor can participate in the milk-clotting reaction, thus affecting activity of enzyme. Further, the skim milk is of increased iron strength after addition of salts, thus interfering the stability of casein micelle and the formation of the milk clot. […] The reason of the promotion on milk coagulant activity and the decrease in milk-clotting time by the calcium ions is that they combines with exposed α-casein and β-casein during aggregation of the casein (i.e. the second step of the milk-clotting reaction), so as to promote formation of the milk clot. Further, it has been investigated that the calcium ions protect enzyme, especially those being poor resistant to temperature, and stabilizes the structure of enzyme, thus an amount of CaCl2 is often added to protect the structure of enzyme during cheese production, for increasing activity and speeding milk-clotting.

[4] = test system: C. otophyllum protease QA; assay: Effect of metal ions on milk-clotting activity; assay type: biochemical, Cynanchum otophyllum Schneid.; conditions: metal ion 10 mmol/L added to 12% (w/v) skim milk containing 10 mmol/L CaCl2, pH 6.5
Excerpt: as §4

12% skim milk = assay: Milk clotting activity (MCA) assay, curd formation time; assay type: biochemical; conditions: 12% skim milk in 10 mM CaCl2, pH 6.5, 37° C.; FIG. 5
Experimental: The MCA of the C. otophyllum proteases was determined using a modified method of He et al. (2011). One milliliter of substrate (12% skim milk in 10 mM CaCl2, pH 6.5) was incubated under 37° C. for 5 min, then 0.1 mL of the protease extracted solution was added. The time needed for curd formation was recorded and the MCA was expressed in Soxhlet units (SU). One SU of MCA was defined as the amount of the protease extracted solution required to clot 1 mL of substrate within 40 min at 37° C.
where V stands for the volume of the substrate (mL); v stands for the volume of the protease extract; and t stands for the milk-clotting time (s).
The C. otophyllum proteases were extracted as described by Huang et al. (2011) with some modifications. The C. otophyllum leaves were cut into pieces, mixed with a buffer at different solid-liquid ratios (i.e. ratio of mass to volume) for extraction, and then left for 2 h under 4° C., thus obtaining an extracted solution. After successive filtration through 4 layers of cheesecloth and a 0.22-μm membrane, the filtrate was concentrated by ultrafiltration with a 10-kDa molecular weight cut-off membrane at 8000 × g for 40 minutes at 4° C., with the retentate obtained as the concentrated solution of C. otophyllum proteases, which was assayed for protein concentration following the method of Bradford (1976) and curd formation time for 12% (w/v) skim milk.

| Molecule | effect on milk-clotting activity of QC [3] | effect on milk-clotting activity of QA [4] | other results |
| --- | --- | --- | --- |
| CC(C)C[C@H](NC(=O)[C@H]1O[C@@H]1C(=O)O)C(=O)NCCCCN=C(N)N [E-64, transepoxy-succinylleucyl-amido-(4-guanidino)-butane] |  |  | PA of QC in presence of inhibitor ([1]; 0.1 mL to 1 mL protease): 20 % of the control; PA of QA in presence of inhibitor ([2]; 0.1 mL to 1 mL protease): 20 % of the control |
| O=C(O)CN(CCN(CC(=O)O)CC(=O)O)CC(=O)O [EDTA] |  |  | effect on the PA of QC [1]: does not affect; effect on the PA of QA [2]: does not affect |
| O=S(=O)(F)Cc1ccccc1 [PMSF, phenylmethylsulfonyl fluoride] |  |  | reduction in the activity of QC ([1]; compared to the control): about 15%; reduction in the activity of QA ([2]; compared to the control): about 15% |
| CC(C)CC(=O)N[C@H](C(=O)N[C@H](C(=O)N[C@@H](CC(C)C)[C@@H](O)CC(=O)N[C@@H](C)C(=O)N[C@@H](CC(C)C)[C@@H](O)CC(=O)O)C(C)C)C(C)C [pepstatin A] (Isovaleryl-VV[Sta]A[Sta]-OH) |  |  | effect on the PA of QC [1]: does not affect; effect on the PA of QA [2]: does not affect |
| aluminium | significant increased effect | significant increased effect |  |
| barium | no significant effect | no significant effect |  |
| bromelain [reference compound] |  |  | MCA (milk-clotting activity) (12% skim milk): 222.2 SU/mg |
| calcium | significant increased effect | significant increased effect |  |
| copper | significant inhibition | significant inhibition |  |
| lithium | no significant effect | no significant effect |  |
| magnesium | no significant effect | no significant effect |  |
| potassium | no significant effect | no significant effect |  |
| sodium | no significant effect | no significant effect |  |
| zinc | significant inhibition | significant inhibition |  |

Source: patent US20190183138A1, “MILK COAGULANT AND METHOD FOR PRODUCING CHEESE” (CHINA AGRICULTURAL UNIVERSITY, priority 2017, published 2019)
